Molecules are shown by their SMILES.

One experiment deals with T1, Dimer of Gag-Pol polyprotein [489-587] (Human immunodeficiency virus 1, UniProt P12497).
T1 construct: 489-587
Kind of experiment: Protease Inhibition Assay.
Conditions: not given
As for the experimental part:
Enzymatic activity was measured by following cleavage of the substrate H-Lys-Ala-Arg-Val-Leu-pNph-Glu-Ala-Nle-NH2. Products of the cleavage reaction were quantified by HPLC detection
Compound `COc1ccc(CN[C@@H](C(=O)N[C@H]2c3ccccc3C[C@H]2O)[C@H](O)[C@H](Cc2ccccc2)NC(=O)[C@@H](NC(=O)OC(C)(C)C)C(C)(C)C)cc1` [tert-butyl N-[(1S)-1-{[(2S,3R,4R)-3-hydroxy-4-{[(1S,2R)-2-hydroxy-2,3-dihydro-1H-inden-1-yl]carbamoyl}-4-{[(4-methoxyphenyl)methyl]amino}-1-phenylbutan-2-yl]carbamoyl}-2,2-dimethylpropyl]carbamate] displayed a Ki of 210 nM.
On to `COc1ccc(CN[C@@H](C(=O)N[C@H]2c3ccccc3C[C@H]2O)[C@H](O)[C@H](Cc2ccccc2)NC(=O)[C@@H](NC(=O)CCc2ccc(OC)c(O)c2)C(C)(C)C)cc1` [(2R,3R,4S)-3-hydroxy-N-[(1S,2R)-2-hydroxy-2,3-dihydro-1H-inden-1-yl]-4-[(2S)-2-[3-(3-hydroxy-4-methoxyphenyl)propanamido]-3,3-dimethylbutanamido]-2-{[(4-methoxyphenyl)methyl]amino}-5-phenylpentanamide], for which the affinity corresponds to a Ki of 7.7 nM.
`COc1ccc(CN[C@@H](C(=O)N[C@H]2c3ccccc3C[C@H]2O)[C@H](O)[C@H](Cc2ccccc2)NC(=O)[C@@H](NC(=O)/C=C/c2ccc(OC)c(O)c2)C(C)(C)C)cc1` [(2R,3R,4S)-3-hydroxy-N-[(1S,2R)-2-hydroxy-2,3-dihydro-1H-inden-1-yl]-4-[(2S)-2-[(2E)-3-(3-hydroxy-4-methoxyphenyl)prop-2-enamido]-3,3-dimethylbutanamido]-2-{[(4-methoxyphenyl)methyl]amino}-5-phenylpentanamide] displayed an inhibition constant (Ki) of 5.8 nM. This Ki and that of the compound before are within 1.5-fold of each other.
Turning to `CC(C)(C)[C@H](NC(=O)OCc1ccccc1)C(=O)N[C@@H](Cc1ccccc1)[C@@H](O)[C@@H](NCc1ccc(CNC(=O)CCc2nc3ccccc3[nH]2)cc1)C(=O)N[C@H]1c2ccccc2C[C@H]1O` [benzyl N-[(1S)-1-{[(2S,3R,4R)-4-{[(4-{[3-(1H-1,3-benzodiazol-2-yl)propanamido]methyl}phenyl)methyl]amino}-3-hydroxy-4-{[(1S,2R)-2-hydroxy-2,3-dihydro-1H-inden-1-yl]carbamoyl}-1-phenylbutan-2-yl]carbamoyl}-2,2-dimethylpropyl]carbamate], the Ki turned out to be 4.1 nM.
Same read-out and setting: to `COc1ccc(CN[C@@H](C(=O)N[C@H]2c3ccccc3C[C@H]2O)[C@H](O)[C@H](Cc2ccccc2)NC(=O)[C@@H](NC(=O)CSc2nnc(C)s2)C(C)(C)C)cc1` [(2R,3R,4S)-4-[(2S)-3,3-dimethyl-2-{2-[(5-methyl-1,3,4-thiadiazol-2-yl)sulfanyl]acetamido}butanamido]-3-hydroxy-N-[(1S,2R)-2-hydroxy-2,3-dihydro-1H-inden-1-yl]-2-{[(4-methoxyphenyl)methyl]amino}-5-phenylpentanamide] belongs 8 nM; to `COc1ccc(CN[C@@H](C(=O)N[C@H]2c3ccccc3C[C@H]2O)[C@H](O)[C@H](Cc2ccccc2)NC(=O)[C@@H](NC(=O)CSc2nncn2C)C(C)(C)C)cc1` [(2R,3R,4S)-4-[(2S)-3,3-dimethyl-2-{2-[(4-methyl-4H-1,2,4-triazol-3-yl)sulfanyl]acetamido}butanamido]-3-hydroxy-N-[(1S,2R)-2-hydroxy-2,3-dihydro-1H-inden-1-yl]-2-{[(4-methoxyphenyl)methyl]amino}-5-phenylpentanamide], 5.8 nM; to `COc1ccc(CN[C@@H](C(=O)N[C@H]2c3ccccc3C[C@H]2O)[C@H](O)[C@H](Cc2ccccc2)NC(=O)[C@@H](NC(=O)CCc2ccccc2O)C(C)(C)C)cc1` [(2R,3R,4S)-3-hydroxy-N-[(1S,2R)-2-hydroxy-2,3-dihydro-1H-inden-1-yl]-4-[(2S)-2-[3-(2-hydroxyphenyl)propanamido]-3,3-dimethylbutanamido]-2-{[(4-methoxyphenyl)methyl]amino}-5-phenylpentanamide], 13 nM.
With `COc1ccc(CN[C@@H](C(=O)N[C@H]2c3ccccc3C[C@H]2O)[C@H](O)[C@H](Cc2ccccc2)NC(=O)[C@@H](NC(=O)/C=C/c2ccc(OC)cc2O)C(C)(C)C)cc1` [(2R,3R,4S)-3-hydroxy-N-[(1S,2R)-2-hydroxy-2,3-dihydro-1H-inden-1-yl]-4-[(2S)-2-[(2E)-3-(2-hydroxy-4-methoxyphenyl)prop-2-enamido]-3,3-dimethylbutanamido]-2-{[(4-methoxyphenyl)methyl]amino}-5-phenylpentanamide], the affinity, expressed as Ki, was 18 nM.

The same experiment, now with this note: pH 6.25; 37 °C.
Turning to `CC(C)(C)OC(=O)N[C@@H](Cc1ccccc1)[C@@H](O)[C@@H](NCc1ccc(OCCO)cc1)C(=O)NCc1ccccc1` [tert-butyl N-[(2S,3R,4R)-4-(benzylcarbamoyl)-3-hydroxy-4-({[4-(2-hydroxyethoxy)phenyl]methyl}amino)-1-phenylbutan-2-yl]carbamate], the Ki came out at 1200 nM.
`CC(C)(C)OC(=O)N[C@@H](Cc1ccccc1)[C@@H](O)[C@@H](NCc1ccc(OCCN2CCOCC2)cc1)C(=O)N[C@H]1c2ccccc2C[C@H]1O` [tert-butyl N-[(2S,3R,4R)-3-hydroxy-4-{[(1S,2R)-2-hydroxy-2,3-dihydro-1H-inden-1-yl]carbamoyl}-4-[({4-[2-(morpholin-4-yl)ethoxy]phenyl}methyl)amino]-1-phenylbutan-2-yl]carbamate] showed a Ki of 130 nM.
On the same count and under the same terms, to `CCOc1ccc(CN[C@@H](C(=O)N[C@H]2c3ccccc3C[C@H]2O)[C@H](O)[C@H](Cc2ccccc2)NC(=O)OC(C)(C)C)cc1` [tert-butyl N-[(2S,3R,4R)-4-{[(4-ethoxyphenyl)methyl]amino}-3-hydroxy-4-{[(1S,2R)-2-hydroxy-2,3-dihydro-1H-inden-1-yl]carbamoyl}-1-phenylbutan-2-yl]carbamate] belongs 92 nM; to `COc1ccc(CN[C@@H](C(=O)N[C@H]2c3ccccc3C[C@H]2O)[C@H](O)[C@H](Cc2ccccc2)NC(=O)C(CC(N)=O)NC(=O)OCc2ccccc2)cc1` (stereo partly drawn) [benzyl N-(2-carbamoyl-1-{[(2S,3R,4R)-3-hydroxy-4-{[(1S,2R)-2-hydroxy-2,3-dihydro-1H-inden-1-yl]carbamoyl}-4-{[(4-methoxyphenyl)methyl]amino}-1-phenylbutan-2-yl]carbamoyl}ethyl)carbamate], 15 nM; to `COc1ccc(CN[C@@H](C(=O)N[C@H]2c3ccccc3C[C@H]2O)[C@H](O)[C@H](Cc2ccccc2)NC(=O)OC(C)(C)C)cc1` [(2R,3S,4S,1 S,2 R)-4-[[(1,1-Dimethylethoxy0carbonyl]amino]-3-hydroxy-2-[(4-methoxybenzyl)amino]-5-phenylpentan(2-hydroxy-1 indanyl)amide], 65 nM.
Take `CC(C)(C)OC(=O)N[C@@H](Cc1ccccc1)[C@@H](O)[C@@H](NCc1ccc(CNC(=O)CCc2nc3ccccc3[nH]2)cc1)C(=O)NCc1ccccc1` [tert-butyl N-[(2S,3R,4R)-4-{[(4-{[3-(1H-1,3-benzodiazol-2-yl)propanamido]methyl}phenyl)methyl]amino}-4-(benzylcarbamoyl)-3-hydroxy-1-phenylbutan-2-yl]carbamate]: the inhibition constant (Ki) is 680 nM.
As to `CC(C)(C)OC(=O)N[C@@H](Cc1ccccc1)[C@@H](O)[C@@H](NCc1ccccc1)C(=O)NCc1ccccc1` [tert-butyl N-[(2S,3R,4R)-4-(benzylamino)-4-(benzylcarbamoyl)-3-hydroxy-1-phenylbutan-2-yl]carbamate], the inhibition constant Ki is 2500 nM. This Ki lies about 3.7-fold higher than the previous one.
In turn, `CC(C)(C)OC(=O)N[C@@H](Cc1ccccc1)[C@@H](O)[C@@H](NCc1ccc(CNC(=O)Nc2ccccc2)cc1)C(=O)N[C@H]1c2ccccc2C[C@H]1O` [tert-butyl N-[(2S,3R,4R)-3-hydroxy-4-{[(1S,2R)-2-hydroxy-2,3-dihydro-1H-inden-1-yl]carbamoyl}-1-phenyl-4-{[(4-{[(phenylcarbamoyl)amino]methyl}phenyl)methyl]amino}butan-2-yl]carbamate] yielded an inhibitory constant (Ki) of 33 nM.
The same measure, in the same setting: the same measure for `COc1ccc(CN[C@@H](C(=O)N[C@H]2c3ccccc3C[C@H]2O)[C@H](O)[C@H](Cc2ccccc2)NC(=O)C(CC(=O)O)NC(=O)OCc2ccccc2)cc1` (stereo partly drawn) [3-{[(benzyloxy)carbonyl]amino}-3-{[(2S,3R,4R)-3-hydroxy-4-{[(1S,2R)-2-hydroxy-2,3-dihydro-1H-inden-1-yl]carbamoyl}-4-{[(4-methoxyphenyl)methyl]amino}-1-phenylbutan-2-yl]carbamoyl}propanoic acid]: 22 nM; for `COc1ccc(CN[C@@H](C(=O)N[C@H]2c3ccccc3C[C@H]2O)[C@H](O)[C@H](Cc2ccccc2)NC(=O)C(NC(=O)OCc2ccccc2)C(C)C)cc1` (stereo partly drawn) [benzyl N-(1-{[(2S,3R,4R)-3-hydroxy-4-{[(1S,2R)-2-hydroxy-2,3-dihydro-1H-inden-1-yl]carbamoyl}-4-{[(4-methoxyphenyl)methyl]amino}-1-phenylbutan-2-yl]carbamoyl}-2-methylpropyl)carbamate]: 8.1 nM; for `COc1ccc(CN[C@@H](C(=O)N[C@H](C(=O)NCc2nc3ccccc3[nH]2)C(C)C)[C@H](O)[C@H](Cc2ccccc2)NC(=O)OC(C)(C)C)cc1` [tert-butyl N-[(2S,3R,4R)-4-{[(1S)-1-[(1H-1,3-benzodiazol-2-ylmethyl)carbamoyl]-2-methylpropyl]carbamoyl}-3-hydroxy-4-{[(4-methoxyphenyl)methyl]amino}-1-phenylbutan-2-yl]carbamate]: 7.7 nM.
Compound `CCC(C)C(NC(=O)OCc1ccccc1)C(=O)N[C@@H](Cc1ccccc1)[C@@H](O)[C@@H](NCc1ccc(OC)cc1)C(=O)N[C@H]1c2ccccc2C[C@H]1O` (stereo partly drawn) [benzyl N-(1-{[(2S,3R,4R)-3-hydroxy-4-{[(1S,2R)-2-hydroxy-2,3-dihydro-1H-inden-1-yl]carbamoyl}-4-{[(4-methoxyphenyl)methyl]amino}-1-phenylbutan-2-yl]carbamoyl}-2-methylbutyl)carbamate] showed a Ki of 8.2 nM.
Take `CC(C)(C)OC(=O)N[C@@H](Cc1ccccc1)[C@@H](O)[C@@H](NCc1ccc(OCCO)cc1)C(=O)N[C@H]1c2ccccc2C[C@H]1O` [tert-butyl N-[(2S,3R,4R)-3-hydroxy-4-{[(1S,2R)-2-hydroxy-2,3-dihydro-1H-inden-1-yl]carbamoyl}-4-({[4-(2-hydroxyethoxy)phenyl]methyl}amino)-1-phenylbutan-2-yl]carbamate]: affinity was put at a Ki of 80 nM.
